Here are results for two compounds from paper PMC11481179, “Development and Application of Reversible and Irreversible Covalent Probes for Human and Mouse Cathepsin‐K Activity Detection, Revealing Nuclear Activity” (Advanced Science, 2024).

One test concerns the target CTSB (Homo sapiens, UniProt P07858). Description: Recombinant cathepsin inhibition, residual activity labeled by pan cathepsin probe GB123, in-gel fluorescence. The format is biochemical. Particulars: even at 10 µM. As to the method:
Figure 1 In vitro evaluation of CTSK targeted compounds. a) Labeling of recombinant cathepsins by ABPs. Recombinant cathepsins were treated with increasing concentrations of ABPs for 1 h. Samples were separated by SDS‐PAGE and scanned for fluorescence by a Typhoon scanner at 635/670 nm. All probes show dose‐dependent binding to the CTSK, and have lower affinity to CTSS except GD36, b) CTSK [0.5–280 ng] was labeled with the indicated ABPs [5 µM]. Incubations were performed for 1 h at 37 °C, at pH 5.5. Samples were analyzed as described in (a). c) Recombinant cathepsins B, K, L, and S [0.5 µM] were first treated with the indicated concentrations of the inhibitor GD30 or vehicle for 1 h followed by incubation with a pan cathepsin probe GB123 [1 µM] for 1 h. Samples were analyzed as described in (a). d) Quantitative analysis of CTSK inhibition by GD30 presented in (d), data represent mean values ± standard error, n = 3. e) IC50 plot of GD30 inhibition of CTSK activity.
To further evaluate the probes for their selectivity, we applied a potent and selective covalent inhibitor, Compound 6 (GD30); the inhibitor was generated as a precursor of GD32 and GD36. GD30 was evaluated for its ability to block cathepsin activities by preincubating it with each recombinant enzyme before labeling it by a pan cathepsin ABP, GB123. […]
Recombinant cathepsin inhibition: Recombinant human CTSL, CTSB, CTSK, and CTSS (0.5 µM) were pretreated with different concentrations of inhibitors (GD30, ODN) for 1 h in reaction buffer (50 mM acetate, 4 mM DTT and 5 mM MgCl2, pH 5.5) at 37 °C. GB123, 1 µM, was added, and incubated with samples for 1 h at 37 °C. The reaction was stopped by the addition of sample buffer 4x (40% glycerol, 0.2 M Tris/HCl pH 6.8, 20% beta-mercaptoethanol, 12% SDS, and 0.4 mg/ml bromophenol blue). Samples were then boiled at 95 °C for 2 mins, separated on a 12.5% SDS gel, and scanned for fluorescence by a Typhoon scanner FLA 9500 at excitation/emission wavelengths of 635/670 nm.
Recombinant cathepsin labeling: Recombinant human CTSL, CTSB, CTSK, and CTSS (0.5 µM) were pretreated with different concentrations of probes (GD32, GD36, GD37, or GD42)

In test [1] the target is T1, endogenous CTSK in intact U-2 OS cells (Homo sapiens, UniProt P43235).
T1 construct: ability to label endogenous CTSK activity in intact cells; endogenous in cells; host or cells: U-2 OS
T1 sequence (P43235 115-329): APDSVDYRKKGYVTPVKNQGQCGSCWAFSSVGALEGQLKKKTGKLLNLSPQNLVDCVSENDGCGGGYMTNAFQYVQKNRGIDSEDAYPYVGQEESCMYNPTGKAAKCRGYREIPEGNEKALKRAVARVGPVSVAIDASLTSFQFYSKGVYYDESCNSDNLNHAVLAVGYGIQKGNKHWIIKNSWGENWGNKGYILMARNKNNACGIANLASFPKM
Description: Labeling of endogenous CTSK in intact cells, fluorescent SDS-PAGE. The test is classed as cell-based. On the procedure: To test probe selectivity and the ability to label endogenous CTSK activity in intact cells, three cell lines were selected: human osteosarcoma MG‐63 and U‐2 OS, and human glioblastoma U‐87 MG; all cell lines express CTSK along with other lysosomal cathepsins.^[ [44] ^] First, the ABPs were incubated with intact U‐2 OS cells for different durations of time, and the probe selectivity toward CTSK was examined, with a pan cathepsin ABP, GB123, used as a control that labels CTS B, K, L, and S in cells. After cell lysis, the probe‐labeled enzymes were resolved and detected by a fluorescent scan of the SDS‐PAGE. […] Specifically, intact MG‐63 cells required a 5 h incubation (Figure 2b,c), while U‐87 MG cells required a 2 h incubation (Figure 2d).
Figure 2 Labeling of endogenous CTSK in intact cells. a) U2‐OS cells were treated with DMSO or 5 µM of the indicated inhibitors in culture medium, for 2 h, then with indicated ABPs [5 µM] in a culture medium for indicated times, followed by cell lysis, SDS‐PAGE separation, and fluorescent scanning of the gel at 635/670 nm. An immunoblot of CTSK of the same gel is presented below. b) Intact MG63 cells were treated with GD32 5 µM in the culture media for indicated times, cell lysates were analyzed as in a. CTSK immunoblot is presented, pro and mature CTSK are indicated by arrows. c) MG63 cells and d) U87MG cells were treated with DMSO, or 5 µM of indicated inhibitors in culture medium for 2 h, followed by incubation with 5 µM of indicated probes for 5 h (GD32 and GD42) and 2 h (GB123), cell lysates were analyzed by fluorescent SDS PAGE as in a. […] In (c) a CTSK immunoblot of a representative MG63 lane on the right. e) Labeling of active mature CTSK by GD32 in A549 and U2‐0S cells in externally adjusted different pH. Cells were incubated with 5 µM GD32 for 24 h in growth media at indicated pHs, prior to the cell lysis, cell lysates were analysed as in a. CTSK immunoblot below. f) A549 cells were incubated with increasing concentrations of GD30 for 2 h at pH = 5, followed by the incubation with 5 µM GD32 for 24 h prior to the cell lysis, cell lysates were analyzed as in a. g) Intact U‐87 MG cells or U‐87 MG cell lysates were treated with 5 µM GD32 for 2 h, the intact cells were then lysed and all lysates were analyzed as in (a). h) Intact or lysates of U‐87MG were treated with GD32 for 2 h then immunoprecipitation was done with an anti‐CTSK antibody. Input (I), immunoprecipitation (IP), and output (O) were separated by a 14% SDS‐PAGE and scanned for fluorescence. The gel was then blotted and reacted with an anti‐cystatin B antibody below. ODN (Odanacatib), GB111 (GB111‐NH2), mCTSK (mature CTSK). […]
deoxycholate). After adding sample buffer, samples were boiled for 10 minutes, and analyzed […]
lysates were analyzed as described above. […]

Turning to `C#CCNC(=O)[C@H](CC(C)C)N[C@@H](c1ccc(-c2ccc(S(=O)(=O)CCNC(=O)OC(C)(C)C)cc2)cc1)C(F)(F)F` [GD30], the “inhibition of recombinant cathepsin” value at CTSB is on record as “not inhibiting”. In test [1] (inhibitor 5 µM, 2 h, then GD32 5 µM), the “effect of inhibitor preincubation on GD32-labeled CTSK band” value is on record as “depletion of the CTSK‐specific band”.

With `C#CCNC(=O)[C@H](CC(C)C)N[C@@H](c1ccc(-c2ccc(S(=O)(=O)CCNC(=O)CCCCC[N+]3=C(/C=C/C=C/C=C4/N(C)c5ccc(S(=O)(=O)O)cc5C4(C)C)C(C)(C)c4cc(S(=O)(=O)O)ccc43)cc2)cc1)C(F)(F)F` [GD32], in test [1] (probe 5 µM, incubation up to 24 h), the “CTSK specificity of labeling” value is given as “retained its CTSK specificity up to 24 h”.
